This assay deals with SMN protein. As to the kind of experiment: cellular SMN ELISA (SMN protein elevation). The class given is cell-based. To be noted: ELISA condition 2: compound concentration 100 pM-10 uM, myoblast cell line from SMNdelta7 mouse model, 24 hours treatment; for SMN activity Fold: fold activation over DMSO control. Summed up:
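SMNdelta7 mouse-derived myoblasts were treated with compound for 24 h, then lysed. SMN protein was quantified by sandwich ELISA (HRP/TMB, 450 nm) and reported as fold over DMSO and EC50, over 20 nM–10 μM or 100 pM–10 μM depending on condition.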
(An ELISA detects its analyte on a solid surface through an enzyme-linked reagent.)

Usually EC50 stands for the concentration giving half of the maximal effect. The low end stands for an effect from little substance, the high end for a need for much substance. For the compound `CN(c1ccc(-c2cc3ccc(OCCCN)cc3cc2O)nn1)C1CC(C)(C)NC(C)(C)C1` [Example 20-5, 7-(3-amino-propoxy)-3-{6-[methyl-(2,2,6,6-tetramethyl-piperidin-4-yl)-amino]-pyridazin-3-yl}-naphthalen-2-ol], the EC50 worked out at 6 nM and the “SMN activity Fold” value worked out at 2.66 Fold.
For `CC(=O)NCCCOc1ccc2cc(-c3ccc(N(C)C4CC(C)(C)NC(C)(C)C4)nn3)c(O)cc2c1` [Example 20-6, N-[3-(7-hydroxy-6-{6-[methyl-(2,2,6,6-tetramethyl-piperidin-4-yl)-amino]-pyridazin-3-yl}-naphthalen-2-yloxy)-propyl]-acetamide], in that order: 50 nM and 2.18 Fold.
For `CN(c1ccc(-c2cc3ccc(OCCCO)cc3cc2O)nn1)C1CC(C)(C)NC(C)(C)C1` [Example 20-7, 7-(3-hydroxypropoxy)-3-(6-(methyl(2,2,6,6-tetramethylpiperidin-4-yl)amino)pyridazin-3-yl)naphthalen-2-ol], in that order: 7 nM and 2.75 Fold.
The matching figures for `COCCCOc1ccc2cc(-c3ccc(N(C)C4CC(C)(C)NC(C)(C)C4)nn3)c(O)cc2c1` [Example 20-8, 7-(3-methoxypropoxy)-3-(6-(methyl(2,2,6,6-tetramethylpiperidin-4-yl)amino)pyridazin-3-yl)naphthalen-2-ol]: 30 nM and 2.61 Fold.
In the case of `CC1(C)CC(Oc2ccc(-c3cc4ccc(OCCN5CCOCC5)cc4cc3O)nn2)CC(C)(C)N1` [Example 20-9, 7-(2-morpholinoethoxy)-3-(6-((2,2,6,6-tetramethylpiperidin-4-yl)oxy)pyridazin-3-yl)naphthalen-2-ol], a half-maximal response (EC50) required 176 nM and the “SMN activity Fold” value was determined as 2.44 Fold.
For `Oc1cc2ccccc2cc1-c1ccc(CC2CCNCC2)nn1` [Example 21-1, 3-(6-(piperidin-4-ylmethyl)pyridazin-3-yl)naphthalen-2-ol], in that order: 959 nM and 2.35 Fold.
Take `CC1(C)CC(Cc2ccc(-c3ccc(-n4cccn4)cc3O)nn2)CC(C)(C)N1` [Example 21-2, 5-(1H-pyrazol-1-yl)-2-(6-((2,2,6,6-tetramethylpiperidin-4-yl)methyl)pyridazin-3-yl)phenol]: it took 206 nM to reach a half-maximal effect (EC50) and the “SMN activity Fold” value is recorded as 2.69 Fold.
Turning to `C[C@H](O)[C@@H]1CC(Oc2ccc(-c3ccc(-n4cccn4)cc3O)nn2)CC(C)(C)N1` (stereo partly drawn) [Example 23-1], a half-maximal response (EC50) required 3650 nM and the “SMN activity Fold” value was determined as 2.32 Fold.
The matching figures for `CN(c1ccc(-c2cc3ccc(C#N)cc3cc2O)nn1)C1CC(C)(C)NC(C)(C)C1` [Example 24-1, 7-hydroxy-6-(6-(methyl(2,2,6,6-tetramethylpiperidin-4-yl)amino)pyridazin-3-yl)-2-naphthonitrile]: 16 nM and 3.14 Fold.
The matching figures for `CN(c1ccc(-c2cc3ccc(CN4CCCCC4)cc3cc2O)nn1)C1CC(C)(C)NC(C)(C)C1` [Example 24-2, 3-(6-(methyl(2,2,6,6-tetramethylpiperidin-4-yl)amino)pyridazin-3-yl)-7-(piperidin-1-ylmethyl)naphthalen-2-ol]: 157 nM and 2.33 Fold.
For `CN(c1ccc(-c2cc3ccc(CN4CCCC4)cc3cc2O)nn1)C1CC(C)(C)NC(C)(C)C1` [Example 24-3, 3-(6-(methyl(2,2,6,6-tetramethylpiperidin-4-yl)amino)pyridazin-3-yl)-7-(pyrrolidin-1-ylmethyl)naphthalen-2-ol], in that order: 120 nM and 2.75 Fold.
With `CN(c1ccc(-c2cc3ccc(O)c(Br)c3cc2O)nn1)C1CC(C)(C)NC(C)(C)C1` [Example 24-4, 1-bromo-6-(6-(methyl(2,2,6,6-tetramethylpiperidin-4-yl)amino)pyridazin-3-yl)naphthalene-2,7-diol], the midpoint of the response, the EC50, lay at 16 nM and the “SMN activity Fold” value is 3.06 Fold.
With `CN(c1ccc(-c2cc3ccc(O)c(Cl)c3cc2O)nn1)C1CC(C)(C)NC(C)(C)C1` [Example 24-5, 1-chloro-6-(6-(methyl(2,2,6,6-tetramethylpiperidin-4-yl)amino)pyridazin-3-yl)naphthalene-2,7-diol], it took 47 nM to reach a half-maximal effect (EC50) and the “SMN activity Fold” value is recorded as 2.99 Fold.
The matching figures for `COc1ccc2cc(-c3ccc(N(C)C4CC(C)(C)NC(C)(C)C4)nn3)c(O)cc2c1` [Example 24-6, 7-methoxy-3-(6-(methyl(2,2,6,6-tetramethylpiperidin-4-yl)amino)pyridazin-3-yl)naphthalen-2-ol]: 6 nM and 2.39 Fold.
For `COc1ccc2cc(-c3ccc(N(C)C4CC(C)(C)N(C)C(C)(C)C4)nn3)c(O)cc2c1` [Example 24-7, 7-methoxy-3-(6-(methyl(1,2,2,6,6-pentamethylpiperidin-4-yl)amino)pyridazin-3-yl)naphthalen-2-ol], in that order: 31 nM and 2.57 Fold.
For `CN(c1ccc(-c2cc3ccc(C4=CCOCC4)cc3cc2O)nn1)C1CC(C)(C)NC(C)(C)C1` [Example 24-8, 7-(3,6-dihydro-2H-pyran-4-yl)-3-(6-(methyl(2,2,6,6-tetramethylpiperidin-4-yl)amino)pyridazin-3-yl)naphthalen-2-ol], in that order: 7 nM and 2.39 Fold.
For the compound `CN(c1ccc(-c2cc3ccc(C4CCOCC4)cc3cc2O)nn1)C1CC(C)(C)NC(C)(C)C1` [Example 24-9, 3-(6-(methyl(2,2,6,6-tetramethylpiperidin-4-yl)amino)pyridazin-3-yl)-7-(tetrahydro-2H-pyran-4-yl)naphthalen-2-ol], the midpoint of the response, the EC50, lay at 338 nM and the “SMN activity Fold” value amounted to 2.65 Fold.
The matching figures for `CN(c1ccc(-c2cc3ccc(C(F)F)cc3cc2O)nn1)C1CC(C)(C)NC(C)(C)C1` [Example 24-10, 7-(difluoromethyl)-3-(6-(methyl(2,2,6,6-tetramethylpiperidin-4-yl)amino)pyridazin-3-yl)naphthalen-2-ol]: 113 nM and 3.14 Fold.
The matching figures for `CN(c1ccc(-c2cc3ccc(OC(C)(C)CCO)cc3cc2O)nn1)C1CC(C)(C)NC(C)(C)C1` [Example 24-11, 7-((4-hydroxy-2-methylbutan-2-yl)oxy)-3-(6-(methyl(2,2,6,6-tetramethylpiperidin-4-yl)amino)pyridazin-3-yl)naphthalen-2-ol]: 133 nM and 2.54 Fold.
The matching figures for `CN(c1ccc(-c2cc3ccc(OCCC(C)(C)O)cc3cc2O)nn1)C1CC(C)(C)NC(C)(C)C1` [Example 24-12, 7-(3-hydroxy-3-methylbutoxy)-3-(6-(methyl(2,2,6,6-tetramethylpiperidin-4-yl)amino)pyridazin-3-yl)naphthalen-2-ol]: 70 nM and 2.80 Fold.
In the case of `CN(c1ccc(-c2c(O)cc(-c3cn[nH]c3)cc2O)nn1)C1CC(C)(C)NC(C)(C)C1` [Example 25-1, 2-(6-(methyl(2,2,6,6-tetramethylpiperidin-4-yl)amino)pyridazin-3-yl)-5-(1H-pyrazol-4-yl)benzene-1,3-diol], the EC50 was 84 nM and the “SMN activity Fold” value came to 2.58 Fold.
As to `COc1cc(-c2cn[nH]c2)cc(O)c1-c1ccc(N(C)C2CC(C)(C)NC(C)(C)C2)nn1` [Example 25-2, 3-methoxy-2-(6-(methyl(2,2,6,6-tetramethylpiperidin-4-yl)amino)pyridazin-3-yl)-5-(1H-pyrazol-4-yl)phenol], the midpoint of the response, the EC50, lay at 8 nM and the “SMN activity Fold” value was 3.44 Fold.
As to `CC1(C)CC(Nc2ccc(-c3c(O)cc(-c4cn[nH]c4)cc3OC(F)(F)F)nn2)CC(C)(C)N1` [Example 25-3, 5-(1H-pyrazol-4-yl)-2-(6-((2,2,6,6-tetramethylpiperidin-4-yl)amino)pyridazin-3-yl)-3-(trifluoromethoxy)phenol], the EC50 came out at 119 nM and the “SMN activity Fold” value turned out to be 2.39 Fold.
For `CN(c1ccc(-c2c(O)cc(-c3cnn(C)c3)cc2OC(F)(F)F)nn1)C1CC(C)(C)NC(C)(C)C1` [Example 25-4, 2-(6-(methyl(2,2,6,6-tetramethylpiperidin-4-yl)amino)pyridazin-3-yl)-5-(1-methyl-1H-pyrazol-4-yl)-3-(trifluoromethoxy)phenol], in that order: 199 nM and 2.30 Fold.
The matching figures for `CN(c1ccc(-c2c(O)cc(-c3cn[nH]c3)cc2OC(F)(F)F)nn1)C1CC(C)(C)NC(C)(C)C1` [Example 25-5, 2-(6-(methyl(2,2,6,6-tetramethylpiperidin-4-yl)amino)pyridazin-3-yl)-5-(1H-pyrazol-4-yl)-3-(trifluoromethoxy)phenol]: 96 nM and 2.36 Fold.
The matching figures for `CN(c1ccc(-c2c(O)cc(-c3ccn(C)c(=O)c3)cc2OC(F)(F)F)nn1)C1CC(C)(C)NC(C)(C)C1` [Example 25-6, 4-(3-hydroxy-4-(6-(methyl(2,2,6,6-tetramethylpiperidin-4-yl)amino)pyridazin-3-yl)-5-(trifluoromethoxy)phenyl)-1-methylpyridin-2(1H)-one]: 107 nM and 2.16 Fold.
In the case of `COc1cc(-c2cnn(C)c2)cc(O)c1-c1ccc(N(C)C2CC(C)(C)NC(C)(C)C2)nn1` [Example 26-1, 3-methoxy-2-(6-(methyl(2,2,6,6-tetramethylpiperidin-4-yl)amino)pyridazin-3-yl)-5-(1-methyl-1H-pyrazol-4-yl)phenol], the EC50 was 14 nM and the “SMN activity Fold” value is 3.18 Fold.

The values above are taken from US10195196B2, “1,4-disubstituted pyridazine analogs there of and methods for treating SMN-deficiency-related conditions” (NOVARTIS AG, priority 2012, dated 2019).
